Literature values, collected in PubChem BioAssay AID1259409 (Chemical Carcinogenesis Research Information System (CCRIS), 2018).

Test system: rodent chemically induced tumor inhibition, incidence and multiplicity
Experiment: CCRIS tumor inhibitor studies
Details: Route [Inhibitor]: ORAL

In the case of `O.O.O.O.O.[Cd+2].[Cd+2].[Cl-].[Cl-].[Cl-].[Cl-]`, the “tumour outcome (control, treated, inhibition, significance)” value (Carcinogen: NITROSODIETHYLAMINE, 55-18-5, Dose [Inhibitor]: 0, 1000 PPM IN DRINKING WATER BEGINNING 2 WK POST CARCINOGEN DOSE AND CONTINUING FOR DURATION OF STUDY (STUDY DURATION:, Species: MOUSE, Strain/Sex: B6C3F1/MALE, Target Tissue: Type of Lesion: LIVER: TUMOR, Dose [Carcinogen]: 5 MG/ML IN TRICAPRYLIN ONCE AT 5 WK OF AGE, Promoter: NONE USED) is given as 22/25 (88%), 2/25 (8%), 91%, p<0.05, the “tumour outcome (control, treated, inhibition, significance)” value (Carcinogen: NITROSODIETHYLAMINE, 55-18-5, Dose [Inhibitor]: 0, 1000 PPM IN DRINKING WATER BEGINNING 2 WK POST CARCINOGEN DOSE AND CONTINUING FOR DURATION OF STUDY (STUDY DURATION:, Species: MOUSE, Strain/Sex: B6C3F1/MALE, Target Tissue: Type of Lesion: LUNG: TUMOR, Dose [Carcinogen]: 5 MG/ML IN TRICAPRYLIN ONCE AT 5 WK OF AGE, Promoter: NONE USED) is given as 100%, 94%, 6%, not significant and the “tumour outcome (control, treated, inhibition, significance)” value (Carcinogen: NITROSODIETHYLAMINE, 55-18-5, Dose [Inhibitor]: 0, 1000 PPM IN DRINKING WATER BEGINNING 4 WK POST CARCINOGEN DOSE AND CONTINUING FOR DURATION OF STUDY (STUDY DURATION:, Species: MOUSE, Strain/Sex: B6C3F1/MALE, Target Tissue: Type of Lesion: LIVER: TUMOR, Dose [Carcinogen]: 5 MG/ML IN TRICAPRYLIN ONCE AT 5 WK OF AGE, Promoter: NONE USED) is given as 22/25 (88%), 1/25 (4%), 95%, p<0.05. The “tumour outcome (control, treated, inhibition, significance)” value (Carcinogen: NITROSODIETHYLAMINE, 55-18-5, Dose [Inhibitor]: 0, 1000 PPM IN DRINKING WATER BEGINNING 4 WK POST CARCINOGEN DOSE AND CONTINUING FOR DURATION OF STUDY (STUDY DURATION:, Species: MOUSE, Strain/Sex: B6C3F1/MALE, Target Tissue: Type of Lesion: LUNG: TUMOR, Dose [Carcinogen]: 5 MG/ML IN TRICAPRYLIN ONCE AT 5 WK OF AGE, Promoter: NONE USED) was 100%, 94%, 6%, not significant, the “tumour outcome (control, treated, inhibition, significance)” value (Carcinogen: NITROSODIETHYLAMINE, 55-18-5, Dose [Inhibitor]: 0, 1000 PPM IN DRINKING WATER BEGINNING 8 WK POST CARCINOGEN DOSE AND CONTINUING FOR DURATION OF STUDY (STUDY DURATION:, Species: MOUSE, Strain/Sex: B6C3F1/MALE, Target Tissue: Type of Lesion: LIVER: TUMOR, Dose [Carcinogen]: 5 MG/ML IN TRICAPRYLIN ONCE AT 5 WK OF AGE, Promoter: NONE USED) was 22/25 (88%), 1/25 (4%), 95%, p<0.05 and the “tumour outcome (control, treated, inhibition, significance)” value (Carcinogen: NITROSODIETHYLAMINE, 55-18-5, Dose [Inhibitor]: 0, 1000 PPM IN DRINKING WATER BEGINNING 8 WK POST CARCINOGEN DOSE AND CONTINUING FOR DURATION OF STUDY (STUDY DURATION:, Species: MOUSE, Strain/Sex: B6C3F1/MALE, Target Tissue: Type of Lesion: LUNG: TUMOR, Dose [Carcinogen]: 5 MG/ML IN TRICAPRYLIN ONCE AT 5 WK OF AGE, Promoter: NONE USED) was 100%, 89%, 11%, not significant. For the same compound, the “tumour outcome (control, treated, inhibition, significance)” value (Carcinogen: NITROSODIETHYLAMINE, 55-18-5, Dose [Inhibitor]: 0, 1000 PPM IN DRINKING WATER BEGINNING 16 WK POST CARCINOGEN DOSE AND CONTINUING FOR DURATION OF STUDY (STUDY DURATION:, Species: MOUSE, Strain/Sex: B6C3F1/MALE, Target Tissue: Type of Lesion: LIVER: TUMOR, Dose [Carcinogen]: 5 MG/ML IN TRICAPRYLIN ONCE AT 5 WK OF AGE, Promoter: NONE USED) was 22/25 (88%), 2/25 (8%), 91%, p<0.05, the “tumour outcome (control, treated, inhibition, significance)” value (Carcinogen: NITROSODIETHYLAMINE, 55-18-5, Dose [Inhibitor]: 0, 1000 PPM IN DRINKING WATER BEGINNING 16 WK POST CARCINOGEN DOSE AND CONTINUING FOR DURATION OF STUDY (STUDY DURATION:, Species: MOUSE, Strain/Sex: B6C3F1/MALE, Target Tissue: Type of Lesion: LUNG: TUMOR, Dose [Carcinogen]: 5 MG/ML IN TRICAPRYLIN ONCE AT 5 WK OF AGE, Promoter: NONE USED) was 100%, 72%, 28%, p<0.05 and the “tumour outcome (control, treated, inhibition, significance)” value (Carcinogen: NITROSODIETHYLAMINE, 55-18-5, Dose [Inhibitor]: 0, 1000 PPM IN DRINKING WATER BEGINNING 32 WK POST CARCINOGEN DOSE AND CONTINUING FOR DURATION OF STUDY (STUDY DURATION:, Species: MOUSE, Strain/Sex: B6C3F1/MALE, Target Tissue: Type of Lesion: LIVER: TUMOR, Dose [Carcinogen]: 5 MG/ML IN TRICAPRYLIN ONCE AT 5 WK OF AGE, Promoter: NONE USED) was 22/25 (88%), 6/24 (25%), 72%, p<0.05. For the same compound, the “tumour outcome (control, treated, inhibition, significance)” value (Carcinogen: NITROSODIETHYLAMINE, 55-18-5, Dose [Inhibitor]: 0, 1000 PPM IN DRINKING WATER BEGINNING 32 WK POST CARCINOGEN DOSE AND CONTINUING FOR DURATION OF STUDY (STUDY DURATION:, Species: MOUSE, Strain/Sex: B6C3F1/MALE, Target Tissue: Type of Lesion: LUNG: TUMOR, Dose [Carcinogen]: 5 MG/ML IN TRICAPRYLIN ONCE AT 5 WK OF AGE, Promoter: NONE USED) was 100%, 96%, 4%, not significant.

In the case of `CSCC[C@H](NC(C)=O)C(=O)O`, the “tumour outcome (control, treated, inhibition, significance)” value (Carcinogen: 7,12-DIMETHYLBENZ[A]ANTHRACENE, 57-97-6, Dose [Inhibitor]: 0.06 MMOL/G DIET DAILY FOR 17 WK STARTING 1 WK PRIOR TO CARCINOGEN TREATMENT AND CONTINUING THROUGH THE END OF THE STUDY, Species: RAT, Strain/Sex: SPRAGUE-DAWLEY/FEMALE, Target Tissue: Type of Lesion: MAMMARY GLAND: TUMOR, Dose [Carcinogen]: 12 MG IN 1 ML OLIVE OIL ONCE, Promoter: NONE USED) is given as 59%, 69%, -17%, not calculated.

In the case of `[O]=[W](=[O])([OH])[OH]`, the outcome (Carcinogen: N-NITROSO-N-METHYLUREA, 684-93-5, Dose [Inhibitor]: 0, 150 PPM IN DRINKING WATER BEGINNING AT 35 D OF AGE (STUDY DURATION:198 D), Species: RAT, Strain/Sex: SPRAGUE-DAWLEY/FEMALE, Target Tissue: Type of Lesion: MAMMARY GLAND: CARCINOMA, Dose [Carcinogen]: 5 MG/100 G BW ONCE AT 50 D OF AGE, Promoter: NONE USED) is given as 50%, 79%, -58%, p<0.05 at 125 d; 91%, 96%, -5%, not calculated at 198 d, the “tumour outcome (control, treated, inhibition, significance)” value (Carcinogen: N-NITROSOSARCOSINE ETHYL ESTER, 1130-69-4, Dose [Inhibitor]: 100 PPM IN DRINKING WATER DAILY FOR 19 WK STARTING 3 WK PRIOR TO START OF CARCINOGEN TREATMENT (STUDY DURATION: 19 WK), Species: RAT, Strain/Sex: SPRAGUE-DAWLEY/MALE, Target Tissue: Type of Lesion: ESOPHAGUS: CARCINOMA, Dose [Carcinogen]: 10 ML/KG BW 2/WK FOR 8 WK, Promoter: NONE USED) is given as 80%, 80%, 0%, not significant and the “tumour outcome (control, treated, inhibition, significance)” value (Carcinogen: N-NITROSOSARCOSINE ETHYL ESTER, 1130-69-4, Dose [Inhibitor]: 100 PPM IN DRINKING WATER DAILY FOR 19 WK STARTING 3 WK PRIOR TO START OF CARCINOGEN TREATMENT (STUDY DURATION: 19 WK), Species: RAT, Strain/Sex: SPRAGUE-DAWLEY/MALE, Target Tissue: Type of Lesion: FORESTOMACH: CARCINOMA, Dose [Carcinogen]: 10 ML/KG BW 2/WK FOR 8 WK, Promoter: NONE USED) is given as 70%, 80%, -14%, not significant. For the same compound, the “tumour outcome (control, treated, inhibition, significance)” value (Carcinogen: N-NITROSOSARCOSINE ETHYL ESTER, 1130-69-4, Dose [Inhibitor]: 100 PPM IN DRINKING WATER DAILY FOR 30 WK STARTING 3 WK PRIOR TO START OF CARCINOGEN TREATMENT (STUDY DURATION: 30 WK), Species: RAT, Strain/Sex: SPRAGUE-DAWLEY/MALE, Target Tissue: Type of Lesion: ESOPHAGUS: CARCINOMA, Dose [Carcinogen]: 10 ML/KG BW 2/WK FOR 8 WK, Promoter: NONE USED) was 91%, 86%, 5%, not significant and the “tumour outcome (control, treated, inhibition, significance)” value (Carcinogen: N-NITROSOSARCOSINE ETHYL ESTER, 1130-69-4, Dose [Inhibitor]: 100 PPM IN DRINKING WATER DAILY FOR 30 WK STARTING 3 WK PRIOR TO START OF CARCINOGEN TREATMENT (STUDY DURATION: 30 WK), Species: RAT, Strain/Sex: SPRAGUE-DAWLEY/MALE, Target Tissue: Type of Lesion: FORESTOMACH: CARCINOMA, Dose [Carcinogen]: 10 ML/KG BW 2/WK FOR 8 WK, Promoter: NONE USED) was 100%, 100%, 0%, not significant.

For `N[C@@H](Cc1ccccc1)C(=O)O`, the “tumour outcome (control, treated, inhibition, significance)” value (Carcinogen: N-METHYL-N'-NITRO-N-NITROSOGUANIDINE, 70-25-7, Dose [Inhibitor]: 0, 6% IN DIET FOR 26 WK ADMINISTERED POST CARCINOGEN DOSE (STUDY DURATION: 52 WK ), Species: RAT, Strain/Sex: WISTAR/MALE, Target Tissue: Type of Lesion: GLANDULAR STOMACH: ADENOCARCINOMA, Dose [Carcinogen]: 50 UG/ML DRINKING WATER FOR 26 WK) is listed as 18/25 (72%), 9/25 (36%), 50%, not calculated.
